Literature values, collected in article PMC3918245 (ChemMedChem, 2013).

Test system: deep-pocket MMPs
Conditions: semi-selective inhibition; specific inhibitors of MMP-8 and MMP-12

**Q.** Which “IC50 against deep-pocket MMPs” value does the source give for `O=C(NCc1ccc(-c2ccccc2)cc1)c1cccc(=O)n1O` [1,2-HOPO-2] here?
**A.** The value was “low nanomolar range”.
